The data set addresses ATP-dependent translocase ABCB1 (Mus musculus, UniProt P21447). Briefly: TP_TRANSPORTER: transepithelial transport (basal to apical) in Mdr1a-expressing LLC-PK1 cells. As to conditions: pig. The format is functional, cell-based.
Chain of ATP-dependent translocase ABCB1 (P21447 whole entry): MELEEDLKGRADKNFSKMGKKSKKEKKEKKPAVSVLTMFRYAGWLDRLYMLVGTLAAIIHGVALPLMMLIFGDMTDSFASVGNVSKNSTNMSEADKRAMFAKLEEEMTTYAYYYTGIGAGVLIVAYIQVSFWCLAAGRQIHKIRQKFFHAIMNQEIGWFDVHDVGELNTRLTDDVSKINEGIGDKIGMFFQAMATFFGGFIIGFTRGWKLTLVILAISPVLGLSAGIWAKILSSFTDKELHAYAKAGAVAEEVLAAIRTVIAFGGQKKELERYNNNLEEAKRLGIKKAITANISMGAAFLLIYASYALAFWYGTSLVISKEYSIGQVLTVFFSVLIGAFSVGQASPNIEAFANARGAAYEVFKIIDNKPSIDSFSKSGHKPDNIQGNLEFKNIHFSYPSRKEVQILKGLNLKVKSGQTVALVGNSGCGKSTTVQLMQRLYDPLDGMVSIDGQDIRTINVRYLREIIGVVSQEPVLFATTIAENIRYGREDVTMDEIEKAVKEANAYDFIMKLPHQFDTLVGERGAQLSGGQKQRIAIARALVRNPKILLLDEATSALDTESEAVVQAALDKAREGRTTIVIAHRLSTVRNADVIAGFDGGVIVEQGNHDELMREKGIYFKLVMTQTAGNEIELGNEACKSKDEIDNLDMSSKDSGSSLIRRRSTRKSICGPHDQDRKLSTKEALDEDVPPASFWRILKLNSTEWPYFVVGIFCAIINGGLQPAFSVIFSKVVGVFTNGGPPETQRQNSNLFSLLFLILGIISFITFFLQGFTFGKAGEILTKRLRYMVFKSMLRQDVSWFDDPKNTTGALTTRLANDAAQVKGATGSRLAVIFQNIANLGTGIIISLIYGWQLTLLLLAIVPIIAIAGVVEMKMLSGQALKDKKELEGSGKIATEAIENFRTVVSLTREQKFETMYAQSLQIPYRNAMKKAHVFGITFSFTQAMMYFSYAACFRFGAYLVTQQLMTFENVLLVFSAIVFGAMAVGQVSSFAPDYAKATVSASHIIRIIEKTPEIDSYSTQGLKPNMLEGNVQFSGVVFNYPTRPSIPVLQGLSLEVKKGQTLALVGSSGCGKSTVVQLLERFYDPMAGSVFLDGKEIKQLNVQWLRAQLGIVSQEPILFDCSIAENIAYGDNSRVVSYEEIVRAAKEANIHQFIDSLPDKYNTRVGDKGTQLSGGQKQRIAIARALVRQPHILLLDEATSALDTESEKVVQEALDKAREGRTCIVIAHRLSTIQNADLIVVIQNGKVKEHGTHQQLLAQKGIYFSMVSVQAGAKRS
As to `CCc1c2c(nc3ccc(OC[C@@H]4O[C@H](C(=O)O)[C@@H](O)[C@H](O)[C@H]4O)cc13)-c1cc3c(c(=O)n1C2)COC(=O)[C@]3(O)CC`, the Activity entry is “substrate [+]”.

Regarding `CCc1c2c(nc3ccc(O)cc13)-c1cc([C@@](O)(CC)C(=O)O)c(CO)c(=O)n1C2`, the Activity entry was “substrate [+]”.

`CCc1c2c(nc3ccc(OC(=O)N4CCC(N5CCCCC5)CC4)cc13)-c1cc([C@@](O)(CC)C(=O)O)c(CO)c(=O)n1C2`: the Activity result was “substrate [+]”.

Consider `CCc1c2c(nc3ccc(OC(=O)N4CCC(N5CCCCC5)CC4)cc13)-c1cc3c(c(=O)n1C2)COC(=O)[C@]3(O)CC` [IRINOTECAN], for which the Activity entry was “substrate [+]”.

The values above are taken from ChEMBL document CHEMBL2074218, “Effect of P-glycoprotein modulator, cyclosporin A, on the gastrointestinal excretion of irinotecan and its metabolite SN-38 in rats” (Pharm Res, 2003).
